Laboratory results taken from US6281214A, “Biphenyl derivatives” (Eisai Co., Ltd, priority 1994, dated 2001).
Like-named read-outs stand apart in the source and are kept apart here.

Assays:
Set-up in all cases: species or system SD rats
serotonin S2 receptor = target: T1, serotonin S2 receptor (Rattus norvegicus, UniProt P14842); assay: serotonin S2 receptor binding test ([3H] Ketanserin Binding Test); settings: 1 nM [3H] Ketanserin, rat cortex, 37° C., 15 minutes
T1 construct: The receptor fraction prepared from the cortex was molten and suspended; from tissue; host or cells: cerebral cortex of SD rats (membrane fraction)
T1 sequence (P14842 whole entry): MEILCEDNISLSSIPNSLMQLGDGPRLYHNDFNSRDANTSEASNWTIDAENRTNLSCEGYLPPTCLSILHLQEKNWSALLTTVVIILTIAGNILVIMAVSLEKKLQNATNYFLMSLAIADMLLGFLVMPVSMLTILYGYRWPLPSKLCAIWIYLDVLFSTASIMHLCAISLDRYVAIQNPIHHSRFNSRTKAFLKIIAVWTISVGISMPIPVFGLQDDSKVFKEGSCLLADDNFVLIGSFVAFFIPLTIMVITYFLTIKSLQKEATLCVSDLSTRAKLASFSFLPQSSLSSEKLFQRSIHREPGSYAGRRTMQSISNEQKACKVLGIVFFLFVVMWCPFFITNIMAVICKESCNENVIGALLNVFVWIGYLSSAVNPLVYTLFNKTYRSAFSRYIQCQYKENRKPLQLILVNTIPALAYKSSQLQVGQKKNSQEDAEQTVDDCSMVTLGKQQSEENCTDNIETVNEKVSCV
Method: (§1) The compounds of the present invention were subjected to each of serotonin S2 receptor binding test, dopamine D2 receptor binding test and adrenergic α1 receptor binding test.
(§2) The following reagents were used in this test.
(§3) These reagents and samples were each dissolved in 10% ethanol before use. Among them, water-insoluble compounds were each dissolved in ethanol and the obtained solution was diluted with distilled water to an ethanol concentration of 10%. Further, Methylsergide maleate was used in a state dissolved in distilled water.
(§4) SD rats aged 6 to 8 weeks were used.
(§5) SD rats were each slaughtered with a guillotine to extirpate its cerebrum. The cortex and corpus striatum were separated from the cerebrum. The former was used in serotonin S2 receptor binding test and adrenergic α1, receptor binding test, while the latter was used in dopamine D2 receptor binding test.
(§6) The cortex was homogenized in a 0.32 M sucrose solution in an amount ten times the wet weight of the cortex by the use of a teflon glass homogenizer and the resulting mixture was centrifuged at 10,000×G for 20 minutes. The obtained sediment was suspended in 50 mM Tris hydrochloride (pH 7.4) in an amount ten times the initial wet weight of the cortex by the use of a histocothrom, and the obtained suspension was centrifuged at 10,000×G for 20 minutes. This operation was repeated twice. The obtained sediment was suspended in 50 mM Tris hydrochloride (pH 7.4) in an amount 20 times the initial wet weight of the cortex by the use of a histocothrom. The suspension thus prepared was used as a receptor fraction. This receptor fraction was stored at -80° C. until use.
4. [^3 ] Ketanserin Binding Test
The receptor fraction prepared from the cortex was molten and suspended by the use of a histocothrom. The resulting suspension was incubated together with 1 nM-[^3 H] Ketanserin at 37° C. for 15 minutes. The resulting reaction system was filtered through a Whatman GF/B glass filter with an MR-30R type cell harvester mfd. by Blandel. The resulting filter was washed twice with 5 ml of 50 mM Tris hydrochloride (ph 7.4) cooled with ice and the radioactivity of the Ketanserin bound the receptor was determined by the use of a liquid scintillation counter with 5 ml of ACS II. The binding detected in the presence of […] of Methylsergide was regarded as nonspecific binding.
(§7) Each IC50 value was calculated by the probit method and each Ki value was determined by the following formula: [formula]
(§8) In the above formula, C represents the concentration of radioligand, and Kd represents the affinity of radioligand for the receptor as determined by the Scatchard analysis.

dopamine D2 receptor = target: T2, dopamine D2 receptor (Rattus norvegicus, UniProt P61169); assay: dopamine D2 receptor binding test ([3H] Spiperone Binding Test); settings: 1 nM [3H] Spiperone, rat corpus striatum, room temperature, 60 minutes
T2 construct: the receptor fraction prepared from the corpus striatum was molten and suspended; from tissue; host or cells: corpus striatum of SD rats (membrane fraction)
T2 sequence (P61169 whole entry): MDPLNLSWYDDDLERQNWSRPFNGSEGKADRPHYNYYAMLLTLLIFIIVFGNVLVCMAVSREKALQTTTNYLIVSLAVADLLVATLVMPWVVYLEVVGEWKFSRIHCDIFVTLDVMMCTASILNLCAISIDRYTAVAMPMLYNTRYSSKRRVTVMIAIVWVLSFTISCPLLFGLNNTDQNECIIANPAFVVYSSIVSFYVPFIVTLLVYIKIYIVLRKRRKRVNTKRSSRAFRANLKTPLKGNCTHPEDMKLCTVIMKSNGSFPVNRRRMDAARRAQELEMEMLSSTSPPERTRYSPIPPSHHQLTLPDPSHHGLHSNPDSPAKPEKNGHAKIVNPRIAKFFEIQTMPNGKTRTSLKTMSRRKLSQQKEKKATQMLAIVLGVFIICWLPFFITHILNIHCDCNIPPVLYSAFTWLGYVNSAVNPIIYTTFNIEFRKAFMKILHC
Method: as §1, §2, §3, §4, §5
On the other hand, the corpus striatum was homogenized in a 0.32 M sucrose solution in an amount ten times the wet weight of the corpus striatum by the use of a teflon glass homogenizer and the obtained mixture was centrifuged at 1,000×G for 20 minutes. The obtained supernatant was centrifuged at 10,000×G for 20 minutes. The obtained sediments were suspended together in 50 mM Tris hydrochloride (pH 7.4) in an amount ten times the initial wet weight of the corpus striatum by the use of a histocothrom, and the obtained suspension was centrifuged at 10,000×G for 20 minutes. This operation was repeated thrice. The resulting sediment was suspended in 50 mM Krebs-Tris (pH 7.4) in an amount 100 times the initial wet weight of the corpus striatum by the use of a histocothrom. The obtained suspension was used as a receptor fraction. This receptor fraction was stored at -80° C. until use.
as §7, §8
5. [^3 H] Spiperone Binding Test
(§9) This test was conducted in the same manner as that of the binding test of [^3 H] Ketanserin except that the receptor fraction prepared from the corpus striatum was molten and suspended with a histocothrom, and the obtained suspension was incubated together with 1 nM-[^3 H], Spiperone at room temperature for 60 minutes and that the binding detected in the presence of 10 μl of Spiperone was regarded as nonspecific binding.

adrenergic α1 receptor = adrenergic α1 receptor binding test ([3H] Prazosin Binding Test); settings: 1 nM [3H] Prazosin, rat cortex, room temperature, 60 minutes
Method: as §1, §2, §3, §4, §5, §6, §7, §8
6. [^3 H] Prazosin Binding Test
as §9, with “cortex” for “corpus striatum”, “H] Prazosin” for “H], Spiperone”, “Phentolamine” for “Spiperone”

[1] = read-out: Ki value, dopamine D2 receptor

Compound | Ki (serotonin S2 receptor) | Ki (dopamine D2 receptor; [1]) | Ki (adrenergic α1 receptor) | Ki (dopamine D2 receptor; Ki value, dopamine D2 receptor)
CCC(F)c1cc(N2CCN(CC)CC2)cc(-c2ccc(F)cc2C)c1Cl (stereo not drawn) [Example 142, 1-Ethyl-4-{3-[2-(4-fluorotolyl)]-4-chloro-5-(1-fluoropropyl)}phenylpiperazine] | 0.0205 µM | 0.00177 µM | 0.653 µM | –
CCCNc1cc(N2CCN(CC)CC2)cc(-c2ccccc2)c1OC [Example 117, 1-Ethyl-4-(3-phenyl-4-methoxy-5-propylamino)phenylpiperazine] | 0.148 µM | 0.0496 µM | 0.334 µM | –
CCN1CCN(c2cc(-c3ccccc3C)c(F)c(S(C)(=O)=O)c2)CC1 [Example 155] | 0.18 µM | 0.041 µM | 0.845 µM | –
CCCCS(=O)(=O)Nc1cc(N2CCN(C)CC2)cc(-c2ccccc2Cl)c1Cl [Example 36, 1Methyl-4-[3-(2-chlorophenyl)-4-chloro-5-butanesulfonylamino]phenylpiperazine] | 0.00404 µM | 0.00126 µM | 0.0253 µM | –
CCCCOC(CC)c1cc(N2CCN(CC)CC2)cc(-c2ccccc2)c1OC (stereo not drawn) [Example 81] | 0.241 µM | 0.0383 µM | > 1 µM | –
CCN1CCN(c2cc(NS(=O)(=O)c3ccc(F)cc3)c(Cl)c(-c3ccccc3C)c2)CC1 [Example 137, 1-Ethyl-4-[3-(2-tolyl)-4-chloro-5-(4-fluorophenylsulfonylamino)]phenylpiperazine] | 0.144 µM | 0.00064 µM | 0.312 µM | –
CCC(F)c1cc(N2CCN(CC)CC2)cc(-c2ccc(F)cc2Cl)c1Cl (stereo not drawn) [Example 156] | 0.029 µM | 0.00139 µM | 0.513 µM | –
CCC(F)c1cc(N2CCN(CC)CC2)cc(-c2ccccc2)c1OC (stereo not drawn) [Example 88, 1-Ethyl-4-[3-phenyl-4-methoxy-5-(1-fluoropropyl)]phenylpiperazine] | 0.00833 µM | 0.00735 µM | 0.493 µM | –
CCN1CCN(c2cc(-c3ccccc3)c(OC)c(S(=O)(=O)CCC#N)c2)CC1 [Example 183, 1-Ethyl-4-[3-phenyl-4-methoxy-5-(2-cycanoethylsulfonyl)]phenylpiperazine] | 0.0812 µM | 0.165 µM | > 1 µM | –
CCCS(=O)(=O)Nc1cc(N2CCN(CC)CC2)cc(-c2ccccc2C=O)c1Cl [Example 196, 1-(2-Ethyl)-4-[3-(2-formylphenyl)-4-chloro-5-propanesulfonylamino]phenylpiperazine] | 0.0132 µM | 0.00552 µM | 0.744 µM | –
CCCCS(=O)(=O)Nc1cc(N2CCN(C)CC2)cc(-c2ccccc2C)c1Cl [Example 30] | 0.00224 µM | 0.00086 µM | 0.0925 µM | –
CCN1CCN(c2cc(NS(=O)(=O)CC(F)(F)F)c(Cl)c(-c3ccccc3C)c2)CC1 [Example 136] | 0.089 µM | 0.0142 µM | 0.472 µM | –
CCN1CCN(c2cc(-c3ccccc3)c(OC)c(S(=O)(=O)CCCOc3ccc(F)cc3)c2)CC1 [Example 181, 1-Ethyl-4-{3-phenyl-4-methoxy-5-[3-(4-fluorophenoxy)propane]sulfonyl}phenylpiperazine] | 0.0005 µM | 0.0262 µM | > 0.1 µM | –
CCC(F)c1cc(N2CCN(CC)CC2)cc(-c2ccccc2OC)c1Cl (stereo not drawn) [Example 143, 1-Ethyl-4-[3-(2-methoxyphenyl)-4-chloro-5-(1-fluoropropyl)]phenylpiperazine] | 0.156 µM | 0.0169 µM | > 1 µM | –
CCN1CCN(c2cc(-c3ccccc3)c(OC)c(C(O)Cc3ccccc3)c2)CC1 (stereo not drawn) [Example 94, 1-Etyl-4-[3-phenyl-4-methoxy-5-(1-hydroxyphenethyl)]phenylpiperazine] | 0.109 µM | 0.0138 µM | 0.6 µM | –
CCN1CCN(c2cc(CCO)c(OC)c(-c3ccccc3)c2)CC1 [Example 66, 1-Ethyl-4-[3-phenyl-4-methoxy-5-(2-hydroxyethyl)]phenylpiperazine] | 0.0659 µM | 0.0183 µM | 0.127 µM | –
CCCc1cc(N2CCN(CCF)CC2)cc(-c2ccc(F)cc2)c1OC [Example 72, 1-(2-Fluoroethyl)-4-[3-(4-fluorophenyl)-4-methoxy-5-propyl]phenylpiperazine] | 0.108 µM | – | 0.27 µM | 0.0503 µM
CCCS(=O)(=O)c1cc(N2CCN(CC)CC2)cc(-c2ccccc2C)c1Cl [Example 159, 1-Ethyl-4-[3-(2-tolyl)-4-chloro-5-propanesulfonyl]phenylpiperazine] | 0.00881 µM | 0.00393 µM | 0.596 µM | –
CCN1CCN(c2cc(-c3ccccc3)c(OC)c(-c3ccccn3)c2)CC1 [Example 97, 1-Ethyl-4-[3-phenyl-4-methoxy-5-(2-pyridyl)]phenylpiperazine] | 0.247 µM | > 1 µM | > 1 µM | –
CCCC(F)c1cc(N2CCN(CC)CC2)cc(-c2ccccc2C)c1F (stereo not drawn) [Example 50, 1-Ethyl-4-[3-(2-tolyl)-4-fluoro-5-(1-fluorobutyl)]phenylpiperazine] | 0.0177 µM | 0.00914 µM | > 1 µM | –
CCN1CCN(c2ccc(O)c(-c3ccccc3)c2)CC1 [Example 62, 1-Ethyl-4-(3-phenyl-4-hydroxy)phenylpiperazine] | > 1 µM | > 1 µM | > 1 µM | –
CCC(F)c1cc(N2CCN(C)CC2)cc(-c2ccccc2C#N)c1Cl (stereo not drawn) [Example 20, 1-Methyl-4-[3-(2-cyanophenyl)-4-chloro-5-(1-fluoropropyl)]phenylpiperazine] | 0.00611 µM | 0.00282 µM | 0.314 µM | –
CCCc1cc(N2CCN(CC)CC2)cc(-c2cccc(F)c2)c1OC [Example 101, 1-Ethyl-4-[3-(3-fluorophenyl)-4-methoxy-5-propyl]phenylpiperazine] | 0.262 µM | 0.118 µM | > 1 µM | –
CCCCS(=O)(=O)c1cc(N2CCN(CC)CC2)cc(-c2ccccc2)c1OC [Example 171, 1-Ethyl-4-(3-phenyl-4-methoxy-5-butanesulfonyl)phenylpiperazine] | 0.00274 µM | 0.0867 µM | > 1 µM | –
CCCc1cc(-c2ccccc2)cc(N2CCN(CC)CC2)c1OC [Example 113, 1-Ethyl-4-(3-phenyl-5-propyl-6-methoxy)phenylpiperazine hyrochloroide] | 0.0211 µM | 0.00873 µM | 0.0289 µM | –
CCC(F)c1cc(N2CCN(C)CC2)cc(-c2ccccc2C)c1Cl (stereo not drawn) [Example 25, 1-Methyl-4-[3-(2-tolyl)-4-chloro-5-(1-fluoropropyl)]phenylpiperazine] | 0.00827 µM | 0.0024 µM | > 1 µM | –
CCN1CCN(c2ccc(OC)c(-c3ccccc3)c2)CC1 [Example 57, 1-Ethyl-4-(3-phenyl-4-methoxy)phenylpiperazine] | > 1 µM | > 1 µM | > 1 µM | –
CCc1cc(N2CCN(CC)CC2)cc(-c2ccccc2)c1OC [Example 70] | 0.128 µM | – | 0.322 µM | 0.0419 µM
CCN1CCN(c2cc(NS(=O)(=O)CCCCl)c(Cl)c(-c3ccccc3C)c2)CC1 [Example 165] | 0.0061 µM | 0.00074 µM | > 1 µM | –
